Consider 20 compounds from ChEMBL document CHEMBL3124804, “Discovery of a cyclopentylamine as an orally active dual NK1 receptor antagonist-serotonin reuptake transporter inhibitor” (Bioorg Med Chem Lett, 2014).

In series [1] the target is Sodium-dependent serotonin transporter (Homo sapiens, UniProt P31645). The series can be described thus: Inhibition of human SERT.
The target of the next series is Substance-P receptor (Homo sapiens, UniProt P25103). Put plainly: Antagonist activity at human NK1 receptor.
Chain of Substance-P receptor (P25103 whole entry): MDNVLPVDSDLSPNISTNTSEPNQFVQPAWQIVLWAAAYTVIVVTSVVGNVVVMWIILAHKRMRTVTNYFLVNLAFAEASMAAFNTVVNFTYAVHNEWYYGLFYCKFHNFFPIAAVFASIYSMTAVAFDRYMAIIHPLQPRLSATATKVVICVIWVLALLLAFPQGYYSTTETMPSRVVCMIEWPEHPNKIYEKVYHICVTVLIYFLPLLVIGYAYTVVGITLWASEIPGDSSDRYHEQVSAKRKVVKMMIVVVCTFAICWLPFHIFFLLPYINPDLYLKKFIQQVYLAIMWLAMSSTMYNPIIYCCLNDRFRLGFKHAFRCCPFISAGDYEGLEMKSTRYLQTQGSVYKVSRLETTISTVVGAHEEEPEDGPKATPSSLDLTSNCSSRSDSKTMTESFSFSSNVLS
Series [2] is described as follows: Drug uptake in gerbil brain at 30 mg/kg, po. The class given is ADME, organism-based. More on the design: dose 30 mg/kg, route oral. As to conditions: gerbillinae, in vivo, read-out: Drug uptake.
Series [3] in a line: Plasma concentration in gerbil at 30 mg/kg, po. The class given is ADME, organism-based. More on the design: dose 30 mg/kg, route oral. The settings on record: gerbillinae, in vivo.
Series [4] concerns Gerbillinae. Put plainly: Neurotoxicity in gerbil assessed as increase in spontaneous locomotor activity at 30 mg/kg, po relative to vehicle-treated control. As to conditions: in vivo. The class given is toxicity, organism-based. Also noted: dose 30 mg/kg, route oral.
For series [5], the system named is Gerbillinae. Put plainly: Antidepressant activity in gerbil assessed as reduction of immobility time at 30 mg/kg, po administered 30 mins prior to testing measured over 6 mins by forced swimming test relative to vehicle-treated control. In kind it is functional, organism-based. More on the design: dose 30 mg/kg.
In series [6] the test system is Gerbillinae. Put plainly: Antidepressant activity in gerbil assessed as reduction of immobility time at 3 to 10 mg/kg, po administered 30 mins prior to testing measured over 6 mins by forced swimming test relative to vehicle-treated control. In kind it is functional, organism-based.

Each structure is given as a SMILES string. The source made the active and inactive calls. No cut-off for these calls is given here.

The IC50 is the concentration at which inhibition is half-maximal.

Chain of Sodium-dependent serotonin transporter (P31645 whole entry): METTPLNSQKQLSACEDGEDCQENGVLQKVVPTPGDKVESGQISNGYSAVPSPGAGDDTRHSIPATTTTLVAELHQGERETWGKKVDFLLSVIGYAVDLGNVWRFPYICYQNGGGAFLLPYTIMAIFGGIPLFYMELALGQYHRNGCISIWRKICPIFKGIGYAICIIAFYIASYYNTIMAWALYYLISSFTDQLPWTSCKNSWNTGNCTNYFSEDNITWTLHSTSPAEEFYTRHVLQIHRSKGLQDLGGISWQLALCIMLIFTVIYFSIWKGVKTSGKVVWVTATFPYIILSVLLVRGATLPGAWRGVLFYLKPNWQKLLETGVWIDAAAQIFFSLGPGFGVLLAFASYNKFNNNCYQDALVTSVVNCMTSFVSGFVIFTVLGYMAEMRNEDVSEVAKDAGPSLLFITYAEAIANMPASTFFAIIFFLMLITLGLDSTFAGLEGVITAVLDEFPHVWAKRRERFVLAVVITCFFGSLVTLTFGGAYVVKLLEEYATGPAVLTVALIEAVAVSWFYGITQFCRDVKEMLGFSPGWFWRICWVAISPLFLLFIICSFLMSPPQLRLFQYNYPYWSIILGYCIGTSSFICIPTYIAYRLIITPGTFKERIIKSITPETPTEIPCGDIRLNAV

Turning to `CN(C)C1CCC(COCc2cc(C(F)(F)F)cc(C(F)(F)F)c2)(c2ccccc2)C1` (mixture of isomers), the IC50 in series [1] came out at 57 nM; at Substance-P receptor, 8 nM.

Regarding `FC(F)(F)c1cc(COCC2(c3ccccc3)CCC(N3CCOCC3)C2)cc(C(F)(F)F)c1` (mixture of isomers), the IC50 was more than 1000 nM in series [1] and 45 nM on Substance-P receptor.

Turning to `N[C@H]1CC[C@](COCc2cc(C(F)(F)F)cc(C(F)(F)F)c2)(c2ccccc2)C1`, the IC50 came to 350 nM in series [1] and 19 nM against Substance-P receptor.

Turning to `CNC1CCC(COCc2cc(C(F)(F)F)cc(C(F)(F)F)c2)(c2ccccc2)CC1` (mixture of isomers), the IC50 in series [1] was 190 nM; against Substance-P receptor, 16 nM.

For the compound `CC(C)N(C(C)C)C1CCC(COCc2cc(C(F)(F)F)cc(C(F)(F)F)c2)(c2ccccc2)C1` (mixture of isomers), the IC50 in series [1] was more than 1000 nM; on Substance-P receptor it was 470 nM.

`FC(F)(F)c1cc(COCC2(c3ccccc3)CCC(NC3CC3)C2)cc(C(F)(F)F)c1` (mixture of isomers): the figures for the IC50 (in series [1]; against Substance-P receptor) were 530 nM and 16 nM, respectively.

Take `FC(F)(F)c1cc(COCC2(c3ccccc3)CCC(N3CCCCC3)C2)cc(C(F)(F)F)c1` (mixture of isomers): the IC50 in series [1] was more than 1000 nM; against Substance-P receptor, 4.7 nM.

As for `FC(F)(F)c1cc(COCC2(c3ccccc3)CCC(N3CCCC3)C2)cc(C(F)(F)F)c1` (mixture of isomers), the figures for the IC50 (in series [1]; against Substance-P receptor) were more than 1000 nM and 14 nM, respectively.

In the case of `N[C@@H]1CC[C@](COCc2cc(C(F)(F)F)cc(C(F)(F)F)c2)(c2ccccc2)C1`, the half-maximal inhibitory concentration (IC50) turned out to be 210 nM in series [1] and 31 nM on Substance-P receptor.

For the compound `FC(F)(F)c1cc(COCC2(c3ccccc3)CCC(N3CCCC3)CC2)cc(C(F)(F)F)c1` (mixture of isomers), the IC50 in series [1] is more than 1000 nM; on Substance-P receptor, 120 nM.

With `N[C@@H]1CC[C@@](COCc2cc(C(F)(F)F)cc(C(F)(F)F)c2)(c2ccccc2)C1`, the IC50 worked out at 130 nM in series [1] and 11 nM against Substance-P receptor.

Take `FC(F)(F)c1cc(COCC2(c3ccccc3)CCC(NC3CC3)CC2)cc(C(F)(F)F)c1` (mixture of isomers): the IC50 in series [1] amounted to 680 nM; at Substance-P receptor, 74 nM.

With `COCCN(C)C1CCC(COCc2cc(C(F)(F)F)cc(C(F)(F)F)c2)(c2ccccc2)C1` (mixture of isomers), the results for the IC50 (in series [1]; on Substance-P receptor) were more than 1000 nM and 20 nM, respectively.

For the compound `CN(C)C1CCC(COCc2cc(C(F)(F)F)cc(C(F)(F)F)c2)(c2ccccc2)CC1` (mixture of isomers), the IC50 worked out at 250 nM in series [1] and 48 nM against Substance-P receptor.

As for `CCNC1CCC(COCc2cc(C(F)(F)F)cc(C(F)(F)F)c2)(c2ccccc2)CC1` (mixture of isomers), the IC50 in series [1] was found to be 150 nM; on Substance-P receptor, 14 nM.

In the case of `CCN(CC)C1CCC(COCc2cc(C(F)(F)F)cc(C(F)(F)F)c2)(c2ccccc2)CC1` (mixture of isomers), the IC50 in series [1] stood at 280 nM; against Substance-P receptor it was 38 nM.

Take `FC(F)(F)c1cc(COCC2(c3ccccc3)CCC(N3CCCCC3)CC2)cc(C(F)(F)F)c1` (mixture of isomers): the IC50 was 970 nM in series [1] and 93 nM on Substance-P receptor.

Consider `N[C@H]1CC[C@@](COCc2cc(C(F)(F)F)cc(C(F)(F)F)c2)(c2ccccc2)C1`, for which the concentration in series [2] is 7.4 µM; in series [3], 0.3 µM. The Activity result in the series with Gerbillinae [4] is listed as “Non-toxic”. For the same compound, the outcome with Gerbillinae [5] was Active. For the same compound, the outcome in the series on Gerbillinae [6] was inactive. Further, the 50% inhibitory concentration (IC50) stood at 4.7 nM in series [1] and 7.5 nM on Substance-P receptor.

Take `FC(F)(F)c1cc(COCC2(c3ccccc3)CCC(N3CCOCC3)CC2)cc(C(F)(F)F)c1` (mixture of isomers): the IC50 was more than 1000 nM in series [1] and 350 nM on Substance-P receptor.

Turning to `CN1CCN(C2CCC(COCc3cc(C(F)(F)F)cc(C(F)(F)F)c3)(c3ccccc3)CC2)CC1` (mixture of isomers), the IC50 in series [1] amounted to 520 nM; against Substance-P receptor, 120 nM.
